{
  "source": "patent US8551997B2",
  "about": "“Structural-based inhibitors of the glutathione binding site in aldose reductase, methods of screening therefor and methods of use” (The Board of Regents of the University of Texas System, priority 2004, dated 2013)",
  "key": {"[1]": {"system": "BALB/C mice", "test": "Azoxymethane-induced colon carcinogenesis, ACF analysis", "type": "in vivo, mouse", "details": "9 weeks", "procedure": "Approximately six weeks old mice were divided into 4 groups (5 mice/group). Mice in groups 3 and 4 were treated with azoxymethane in sterile saline, at a dose of 10 mg/kg body weight i.p. once a week, for 3 weeks. In group 4, mice were treated with AR inhibitor sorbinil (25 mg/kg body weight per day) for entire period after 1 week from the first azoxymethane injection. Mice in groups 1 and 2 received equal volumes of sterile saline and sorbinil, respectively. Similarly AR knock out mice also were treated with azoxymethane (10 mg/kg body weight i.p.) once a week for 3 weeks. After 9 weeks all mice were killed by CO2 euthanasia. The colons were removed, flushed with saline and opened from anus to cecum and fixed flat between two pieces of filter paper in 10% buffered formalin for 24 h. Colons were stained with 0.2% methylene blue dissolved in saline and the numbers of aberrant crypts foci (ACF) were counted under a microscope at 200× magnification.\nBALB/C mice were injected with azoxymethane or saline and treated with and with out AR inhibitor, sorbinil as described in Example 2. At the early preneoplastic stage (9 weeks after first azoxymethane injection), mice were sacrificed and their colons were removed and analyzed microscopically for the presence of ACF. […]"}, "[2]": {"system": "Caco-2 cells", "test": "Cox-2 mRNA RT-PCR in Caco-2 cells", "type": "cell-based, human", "details": "sorbinil 24 h, growth factor 3 h", "procedure": "Total RNA was isolated from Caco-2 cells by using Rnaeasy micro isolation kit (Qiagen). Total RNA (1.5 μg) sample was reverse transcribed with Omniscript and Sensiscript reverse transcriptase one-Step RT PCR system with HotStarTaq DNA polymerase (Qiagen) at 55° C. for 30 min followed by PCR amplification. The oligonucleotide primer sequences were as follows: 5′-[…]-3′ (sense; SEQ ID NO: 4) and 5′-[…]-3′ (antisense; SEQ ID NO: 5) for Cox-2, and 5′-[…]-3′ (SEQ ID NO: 6) and 5′-[…]-3′ (SEQ ID NO: 7) for β-actin. PCR reaction was carried out in a GeneAmp 2700 thermocycler (Applied Biosystems, Foster City, Calif.) under the following conditions: initial denaturation at 95° C. for 15 min; 35 cycles of 94° C. 30 s, 62° C. 30 s, 72° C. 1 min, and then 72° C. 5 min for final extension (57). PCR products were electrophoresed in 2% Agarose-1™ TAE gels containing 0.5 μg/ml ethidium bromide."}, "[3]": {"system": "Caco-2 cells", "test": "Western blot of phospho-PKC-b2 in Caco-2 cells", "type": "cell-based, human", "details": "BFGF or PDGF", "procedure": "To examine expression of any of Cox-1, Cox-2, phospho-PKC-2, GAPDH, E2F1, Cyclin D1, Cyclin E, and iNOS proteins, Western blot analyses were carried by known methods (15). Equal amounts of protein from cell extracts were subjected to 12% SDS-PAGE followed by transfer of proteins to nitrocellulose filters, probing with the indicated antibodies, and the antigen-antibody complex was detected by enhanced chemiluminescence (Pierce, Piscataway, N.J., USA)."}, "[4]": {"system": "Caco-2 cells", "test": "Flowcytometric cell cycle analysis, Caco-2", "type": "cell-based, human", "details": "sorbinil 20 μM", "procedure": "The Caco-2 and A549 cells were grown separately in 6 well plates at a density of approximately 1.5×10^5 cells/well. Growth-arrested Caco-2 cells were pre-incubated with or without sorbinil 20 μM or carrier for 24 h and then stimulated with either 10 ng/ml BFGF or PDGF for another 24 h. After 24 hrs A549 cells were incubated with or without sorbinil at different concentrations for another 24 h.\nThe Caco-2 and A549 cells were then washed with PBS and harvested by trypsinization. Cellular DNA was stained with low and high salt solutions. Briefly, cells were resuspended in 250 μl of solution A, low salt stain, containing polyetheleneglycol (30 mg/ml), propidium iodide (0.05 mg/ml), triton-x-100 (1 μl/ml), sodium citrate 4 mM, RNAse A 10 μg/ml and incubated at 37° C. for 20 min followed by the addition of 250 μl of solution B, high salt stain containing 400 mM NaCl instead of 4 mM sodium citrate in solution A, and incubated overnight at 4° C. Cell cycle analysis was performed with a minimum of 10,000 events per analysis by using FACScan flow cytometer (Becton, Dickinson and Co., San Jose, Calif., USA)."}, "[5]": {"system": "Caco-2 cells", "test": "NF-kB-dependent reporter SEAP expression assay", "type": "cell-based, human", "procedure": "Caco-2 cells (1.5×10^5 cells/well) were plated in six-well plates and after attachment overnight, were serum-starved in optiMEM medium for 24 h with or without aldose reductase inhibitor, sorbinil (20 μM) and were transiently transfected with pNF-kB-SEAP construct or control plasmid pTALSEAP DNA (Clontech, USA) using the lipofectamine plus reagent. After 6 h of transfection, cells were treated either with 10 ng/ml BFGF or PDGF for 48 h in DMEM medium containing 0.1% FBS. The cell culture medium was then harvested and analyzed for SEAP activity, essentially as described by the manufacturer (Clontech Laboratories, Palo Alto, Calif.), using a 96-well chemiluminescence plate reader and Kodak Image Station 2000R."}, "[6]": {"system": "Caco-2 cells", "test": "NF-kB p65 transcription factor (DNA binding) assay", "type": "cell-based, human", "procedure": "The cytosolic as well as nuclear extracts were prepared as described earlier (15) and the NF-kB activity was determined by using the colorimetric non-radioactive NF-kB p65 Transcription Factor Assay kit (Chemicon Intl.) as per the supplier's instructions. Briefly, a double stranded biotinylated oligonucleotide containing the consensus sequence for NF-kB binding (5′-[…]-3′; SEQ ID NO: 3) was mixed with nuclear extract and assay buffer. After incubation, the mixture (probe+extract+buffer) was transferred to the streptavidin-coated ELISA kit and read at 450 nm using an ELISA plate reader. For each experiment, triplicate samples were measured for statistical significance."}},
  "data": [
    {"substance": "(S)-6-fluorospiro[chroman-4,4′-imidazolidine]-2,5′-dione [sorbinil]", "values": [
      {"measurement": "azoxymethane-induced Cox-2 and iNOS expression in mice colons", "setting": "[1]", "result": "inhibits"},
      {"measurement": "number of average ACF/colon", "setting": "[1]; azoxymethane+sorbinil 25 mg/kg body weight per day", "result": "2.4±0.5"},
      {"measurement": "prevention of BFGF or PDGF-induced Cox-2 mRNA levels", "setting": "[2]", "result": "55-65%"},
      {"measurement": "attenuation of increase in PKC-β2 phosphorylation", "setting": "[3]", "result": "> 70", "unit": "%"},
      {"measurement": "percentage of cells in G1", "setting": "[4]; Control", "result": 54.97, "unit": "%"},
      {"measurement": "percentage of cells in G2", "setting": "[4]; Control", "result": 5.32, "unit": "%"},
      {"measurement": "percentage of cells in S", "setting": "[4]; Control", "result": 39.71, "unit": "%"},
      {"measurement": "percentage of cells in G1", "setting": "[4]; FGF", "result": 36.31, "unit": "%"},
      {"measurement": "percentage of cells in G2", "setting": "[4]; FGF", "result": 1.54, "unit": "%"},
      {"measurement": "percentage of cells in S", "setting": "[4]; FGF", "result": 52.15, "unit": "%"},
      {"measurement": "percentage of cells in G1", "setting": "[4]; PDGF", "result": 36.18, "unit": "%"},
      {"measurement": "percentage of cells in G2", "setting": "[4]; PDGF", "result": 12.10, "unit": "%"},
      {"measurement": "percentage of cells in S", "setting": "[4]; PDGF", "result": 51.71, "unit": "%"},
      {"measurement": "inhibition of BFGF and PDGF-induced NF-κB-dependent reporter (SEAP) activation", "setting": "[5]; sorbinil 20 μM", "result": "> 60", "unit": "%"},
      {"measurement": "NF-κB-SEAP activity", "setting": "[5]; sorbinil alone", "result": "did not affect"},
      {"measurement": "inhibition of BFGF or PDGF-induced NF-kB DNA binding activity", "setting": "[6]", "result": "> 70", "unit": "%"}
    ]}
  ]
}
